Results as given in patent US20250163072A1, “MACROCYCLIC COMPOUNDS FOR THE TREATMENT OF CANCER” (Hoffmann-La Roche Inc., priority 2021, published 2025).

Tests used:
Type in all cases: cell-based, human
[1] = system: KRAS G12C in NCI-H358 cells; experiment: pERK inhibition assay, NCI-H358; conditions: Homo sapiens, 4 hours incubation
Method: (§1) This assay is to measure the ability of test compounds in inhibiting the phosphorylation of ERK, the downstream signaling of KRAS G12C in NCI-H358 cells, KRAS G12D in AGS cells, and KRAS G12V in SW620. NCI-H358 (ATCC-CRL5807) cells, AGS (ATCC-CRL-1739) cells, SW620 (ATCC-CCL-227) cells were all grown and maintained using RPMI-1640 medium (Thermo Fisher Scientific) with 10% fetal bovine serum and 1% penicillin/streptomycin. On the day prior to compound addition, cells were plated in tissue culture-treated 96 well plates (Corning-3699) at a density of 30,000 cell/well, 20,000 cell/well, 30,000 cell/well for NCI-H358, AGS and SW620 respectively, and allowed for attachment overnight. Diluted compounds were then added in a final concentration of 0.5% DMSO. After 4 hours of incubation, the medium was removed, 100 μL of 4% formaldehyde was added, and the assay plates were incubated at room temperature for 20 minutes. The plates were then washed once with phosphate buffered saline (PBS), and permeabilized with 100 μL of chilled methanol for 10 minutes. Non-specific antibody binding to the plates was blocked using 50 μL 1×BSA blocking buffer (Thermo-37520, 10-fold dilution by Phosphate-Buffered Saline Tween (PBST) for at least 1 hour at room temperature. The amount of phosphor-ERK was determined using an antibody specific for phosphorylated form of ERK. Primary antibody (pERK, CST-4370, Cell Signaling Technology) was diluted 1:300 in blocking buffer, with 50 μL aliquoted to each well, and incubated overnight at 4° C. Cells were washed five times for 5 minutes with PBST. Secondary antibody (HRP-linked anti-rabbit IgG, CST-7074, Cell Signaling Technology) was diluted 1:1000 in blocking buffer, and 50 μL was added to each well and incubated 1-2 hours at room temperature. Cells were washed 5 times for 5 minutes with PBST, 100 μL TMB ELISA substrate (abcam-ab171523) were added and gently shake for 20 minutes. 50 μL stop solution (abcam-ab171529) were added, and then read the signal (OD450) by EnVision. IC50 was determined by fitting a 4-parameter sigmoidal concentration response model.

KRAS G12D in AGS cells = experiment: pERK inhibition assay, AGS; conditions: Homo sapiens, 4 hours incubation
Method: as §1

KRAS G12V in SW620 = experiment: pERK inhibition assay, SW620; conditions: Homo sapiens, SW-620, SW620 cells, 4 hours incubation
Method: as §1

NCI-H358 cells = experiment: Cell viability assay, NCI-H358; conditions: Homo sapiens, NCI-H358, 72 hours, Cell Counting Kit-8, read-out: G12C IC50
Method: (§2) The purpose of this cellular assay was to determine the effects of test compounds on the proliferation of human cancer cell lines NCI-H358 (ATCC-CRL5807) cells, AGS (ATCC-CRL-1739) cells, SW620 (ATCC-CCL-227) over a 3-day treatment period by quantifying the amount of NADPH present at endpoint using Cell Counting Kit-8. Cells were seeded at 5,000 cells/well (NCI-H358), 2,000 cells/well (AGS) 2,000 cells/well (SW620) in 96-well assay plates (Corning-3699) and incubated overnight. On the day of the assay, diluted compounds were then added in a final concentration of 0.5% DMSO. After 72 hours incubation, a tenth of the volume of cell counting kit 8(Dnjindo-CK04) was added into each well. Read the signal (OD450 minus OD650) using EnVision after 2 hours incubation. IC50 was determined by fitting a 4-parameter sigmoidal concentration response model.

SW620 cells = experiment: Cell viability assay, SW620; conditions: Homo sapiens, SW-620, SW620, 72 hours, Cell Counting Kit-8, read-out: G12V IC50
Method: as §2

AGS cells = experiment: Cell viability assay, AGS; conditions: Homo sapiens, 72 hours, Cell Counting Kit-8, read-out: G12D IC50
Method: as §2

SMILES | IC50 [1] [nM] | IC50 (KRAS G12D in AGS cells) [nM] | IC50 (KRAS G12V in SW620) [nM] | IC50 (NCI-H358 cells) [nM] | IC50 (SW620 cells) [nM] | IC50 (AGS cells) [nM]
C#CC1(F)CCN(C(=O)N(C)[C@H](C(=O)N[C@H]2Cc3cc(O)cc(c3)-c3ccc4c(c3)c(c(-c3cccnc3[C@H](C)OC)n4CC)CC(C)(C)COC(=O)[C@@H]3CCCN(N3)C2=O)C(C)C)CC1 (atropisomer, axis not shown; (M)) [Example 16, N-[(1S)-1-[[(8S,14S)-22-ethyl-4-hydroxy-(21M)-21-[2-[(1S)-1-methoxyethyl]-3-pyridyl]-18,18-dimethyl-9,15-dioxo-16-oxa-10,22,28-triazapentacyclo[18.5.2.12,6.110,14.023,27]nonacosa-1(26),2,4,6(29),20,23(27),24-heptaen-8-yl]carbamoyl]-2-methyl-propyl]-4-ethynyl-4-fluoro-N-methyl-piperidine-1-carboxamide] | 43 | 528 | 78 | 77 | 294 | 1170
CCn1c(-c2cccnc2[C@H](C)OC)c2c3cc(ccc31)-c1csc(n1)C[C@H](NC(=O)[C@H](C(C)C)N(C)C(=O)[C@H]1CCN(C(=O)[C@H](F)Cl)C1)C(=O)N1CCC[C@H](N1)C(=O)OCC(C)(C)C2 (atropisomer, axis not shown; (M)) [Example 17, (3S)-1-[(2R)-2-chloro-2-fluoro-acetyl]-N-[(1S)-1-[[(7S,13S)-21-ethyl-(20M)-20-[2-[(1S)-1-methoxyethyl]-3-pyridyl]-17,17-dimethyl-8,14-dioxo-15-oxa-4-thia-9,21,27,28-tetrazapentacyclo[17.5.2.12,5.19,13.022,26]octacosa-1(25),2,5(28),19,22(26),23-hexaen-7-yl]carbamoyl]-2-methyl-propyl]-N-methyl-pyrrolidine-3-carboxamide] | 23 |  | 124 | 6 | 449 | 1130
CCn1c(-c2cccnc2[C@H](C)OC)c2c3cc(ccc31)-c1cc(O)cc(c1)C[C@H](NC(=O)[C@H](C(C)C)N(C)C(=O)[C@H]1CCN(C(=O)C34CC3C4)C1)C(=O)N1CCC[C@H](N1)C(=O)OCC(C)(C)C2 (stereo partly drawn) [Example 11, (3S)-1-(bicyclo[1.1.0]butane-1-carbonyl)-N-[(1S)-1-[[(8S,14S)-22-ethyl-4-hydroxy-(21M)-21-[2-[(1S)-1-methoxyethyl]-3-pyridyl]-18,18-dimethyl-9,15-dioxo-16-oxa-10,22,28-triazapentacyclo[18.5.2.12,6.110,14.023,27]nonacosa-1(26),2,4,6(29),20,23(27),24-heptaen-8-yl]carbamoyl]-2-methyl-propyl]-N-methyl-pyrrolidine-3-carboxamide] | 83 | 164 | 380 | 118 | 161 | 
CCn1c(-c2cccnc2[C@H](C)OC)c2c3cc(ccc31)-c1cc(O)cc(c1)C[C@H](NC(=O)[C@H](C(C)C)N(C)C(=O)[C@H]1CCN(C(=O)[C@@H](F)Cl)C1)C(=O)N1CCC[C@H](N1)C(=O)OCC(C)(C)C2 (atropisomer, axis not shown; (M)) [Example 1, (3S)-1-[(2S)-2-chloro-2-fluoro-acetyl]-N-[(1S)-1-[[(8S,14S)-22-ethyl-4-hydroxy-(21M)-21-[2-[(1S)-1-methoxyethyl]-3-pyridyl]-18,18-dimethyl-9,15-dioxo-16-oxa-10,22,28-triazapentacyclo[18.5.2.12,6.110,14.023,27]nonacosa-1(26),2,4,6 (29),20,23 (27),24-heptaen-8-yl]carbamoyl]-2-methyl-propyl]-N-methyl-pyrrolidine-3-carboxamide] | 8 | 469 |  | 4 |  | 

Next, values leading:

IC50 [1] [nM] | IC50 (KRAS G12D in AGS cells) [nM] | IC50 (KRAS G12V in SW620) [nM] | IC50 (NCI-H358 cells) [nM] | IC50 (SW620 cells) [nM] | IC50 (AGS cells) [nM] | SMILES
42 | 297 | 51 | 30 | 162 |  | C#CC1CC(C(=O)N(C)[C@H](C(=O)N[C@H]2Cc3cc(O)cc(c3)-c3ccc4c(c3)c(c(-c3cccnc3[C@H](C)OC)n4CC)CC(C)(C)COC(=O)[C@@H]3CCCN(N3)C2=O)C(C)C)C1 (stereo partly drawn) [Example 4, N-[(1S)-1-[[(8S,14S)-22-ethyl-4-hydroxy-(21M)-21-[2-[(1S)-1-methoxyethyl]-3-pyridyl]-18,18-dimethyl-9,15-dioxo-16-oxa-10,22,28-triazapentacyclo[18.5.2.12,6.110,14.023,27]nonacosa-1(26),2,4,6(29),20,23(27),24-heptaen-8-yl]carbamoyl]-2-methyl-propyl]-3-ethynyl-N-methyl-cyclobutanecarboxamide]
 |  |  | 797 |  |  | C#CCN1CC[C@H](C(=O)N(C)[C@H](C(=O)N[C@H]2Cc3cc(O)cc(c3)-c3ccc4c(c3)c(c(-c3cccnc3[C@H](C)OC)n4CC)CC(C)(C)COC(=O)[C@@H]3CCCN(N3)C2=O)C(C)C)C1 (atropisomer, axis not shown; (M)) [Example 6, (3S)-N-[(1S)-1-[[(8S,14S)-22-ethyl-4-hydroxy-(21M)-21-[2-[(1S)-1-methoxyethyl]-3-pyridyl]-18,18-dimethyl-9,15-dioxo-16-oxa-10,22,28-triazapentacyclo[18.5.2.12,6.110,14.023,27]nonacosa-1(26),2,4,6(29),20,23(27),24-heptaen-8-yl]carbamoyl]-2-methyl-propyl]-N-methyl-1-prop-2-ynyl-pyrrolidine-3-carboxamide]
436 |  |  |  |  |  | CCn1c(-c2cccnc2[C@H](C)OC)c2c3cc(ccc31)-c1cc(O)cc(c1)C[C@H](NC(=O)[C@H](C(C)C)N(C)C(=O)C1CC(C(=O)C=S(C)(C)=O)C1)C(=O)N1CCC[C@H](N1)C(=O)OCC(C)(C)C2 (stereo partly drawn) [Example 8, 3-[2-[dimethyl(oxo)-λ^6-sulfanylidene]acetyl]-N-[(1S)-1-[[(8S,14S)-22-ethyl-4-hydroxy-(21M)-21-[2-[(1S)-1-methoxyethyl]-3-pyridyl]-18,18-dimethyl-9,15-dioxo-16-oxa-10,22,28-triazapentacyclo[18.5.2.12,6.110,14.023,27]nonacosa-1(26),2,4,6(29),20,23(27),24-heptaen-8-yl]carbamoyl]-2-methyl-propyl]-N-methyl-cyclobutanecarboxamide]
189 |  | 274 | 66 | 328 |  | CCn1c(-c2cccnc2[C@H](C)OC)c2c3cc(ccc31)-c1cc(O)cc(c1)C[C@H](NC(=O)[C@H](C(C)C)N(C)C(=O)C1CC(C#Cc3ccccn3)C1)C(=O)N1CCC[C@H](N1)C(=O)OCC(C)(C)C2 (stereo partly drawn) [Example 13, N-[(1S)-1-[[(8S,14S)-22-ethyl-4-hydroxy-(21M)-21-[2-[(1S)-1-methoxyethyl]-3-pyridyl]-18,18-dimethyl-9,15-dioxo-16-oxa-10,22,28-triazapentacyclo[18.5.2.12,6.110,14.023,27]nonacosa-1(26),2,4,6(29),20,23(27),24-heptaen-8-yl]carbamoyl]-2-methyl-propyl]-N-methyl-3-[2-(2-pyridyl)ethynyl]cyclobutanecarboxamide]
513 | 236 |  |  |  |  | CCn1c(-c2cccnc2[C@H](C)OC)c2c3cc(ccc31)-c1cc(O)cc(c1)C[C@H](NC(=O)[C@H](C(C)C)N(C)C(=O)[C@H]1CCN(CC#N)C1)C(=O)N1CCC[C@H](N1)C(=O)OCC(C)(C)C2 (atropisomer, axis not shown; (M)) [Example 7, (3S)-1-(cyanomethyl)-N-[(1S)-1-[[(8S,14S)-22-ethyl-4-hydroxy-(21M)-21-[2-[(1S)-1-methoxyethyl]-3-pyridyl]-18,18-dimethyl-9,15-dioxo-16-oxa-10,22,28-triazapentacyclo[18.5.2.12,6.110,14.023,27]nonacosa-1(26),2,4,6(29),20,23(27),24-heptaen-8-yl]carbamoyl]-2-methyl-propyl]-N-methyl-pyrrolidine-3-carboxamide]
